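Where inhibition never reached the appropriate level, the endpoint shown equals the highest concentration tested. Otherwise, values were interpolated linearly from a five-concentration, 48-hour dose response in 96-well plates. TGI: total growth inhibition.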
Assays:
Assay in all cases: inhibition of tumour cell growth, NCI panel, 48 h
786-0 renal = test system: 786-0 renal
A549 NSCLC = test system: A549 NSCLC
ACHN renal = test system: ACHN renal
HL-60(TB) leukemia = test system: HL-60(TB) leukemia
HT29 colon = test system: HT29 colon
K-562 leukemia = test system: K-562 leukemia
LOX IMVI melanoma = test system: LOX IMVI melanoma
M14 melanoma = test system: M14 melanoma
NCI-H460 lung = test system: NCI-H460 lung
NCI-H522 lung = test system: NCI-H522 lung
NCI/ADR-RES ovarian = test system: NCI/ADR-RES ovarian
OVCAR-3 ovarian = test system: OVCAR-3 ovarian
OVCAR-5 ovarian = test system: OVCAR-5 ovarian
OVCAR-8 ovarian = test system: OVCAR-8 ovarian
RPMI-8226 leukemia = test system: RPMI-8226 leukemia
SK-MEL-28 melanoma = test system: SK-MEL-28 melanoma
SN12C renal = test system: SN12C renal
SR leukemia = test system: SR leukemia
TK-10 renal = test system: TK-10 renal
UACC-257 melanoma = test system: UACC-257 melanoma

Row | Structure (SMILES) | TGI (786-0 renal) | TGI (A549 NSCLC) | TGI (ACHN renal) | TGI (HL-60(TB) leukemia) | TGI (HT29 colon) | TGI (K-562 leukemia) | TGI (LOX IMVI melanoma) | TGI (M14 melanoma) | TGI (NCI-H460 lung) | TGI (NCI-H522 lung) | TGI (NCI/ADR-RES ovarian) | TGI (OVCAR-3 ovarian) | TGI (OVCAR-5 ovarian) | TGI (OVCAR-8 ovarian) | TGI (RPMI-8226 leukemia) | TGI (SK-MEL-28 melanoma) | TGI (SN12C renal) | TGI (SR leukemia) | TGI (TK-10 renal) | TGI (UACC-257 melanoma)
1 | COC(=O)/C=C\C(C#N)(C#N)N=Cc1cc(Br)cs1 | 3.78 µM | 32.4 µM | 4.93 µM | 0.12 µM | 4.86 µM | > 100 µM | 4.51 µM | 6.48 µM | 40.7 µM | 2.9 µM | 36.3 µM | 17.4 µM | 20.8 µM | 11.1 µM | > 71.3 µM | 10.4 µM | 7.64 µM | > 100 µM | 8.45 µM | 7.74 µM
2 | CC(=O)N(C)CCc1c[nH]c2ccccc12 | > 100 µM | > 100 µM | > 100 µM | > 100 µM | > 100 µM | > 100 µM | > 100 µM | > 100 µM | > 100 µM | > 100 µM | > 100 µM | > 100 µM | > 100 µM | > 100 µM | > 100 µM | > 100 µM | > 100 µM | > 100 µM | > 100 µM | > 100 µM
3 | CC(=O)OCC1OC(n2c(C)cc(C)c(C#N)c2=S)C(OC(C)=O)C(OC(C)=O)C1OC(C)=O (centres undefined) | > 100 µM | > 100 µM | > 100 µM | > 100 µM | > 100 µM | > 100 µM | > 100 µM | > 100 µM | > 100 µM | > 100 µM | > 100 µM | > 100 µM | > 100 µM | > 100 µM | > 100 µM | > 100 µM | > 100 µM | > 100 µM | > 100 µM | > 100 µM
4 | COC(=O)NC(C(F)(F)F)(C(F)(F)F)P1(=O)OCCCO1 | > 100 µM | > 100 µM | 54.2 µM | 51.1 µM | 63.9 µM | > 100 µM | 58.4 µM | > 100 µM | 84.6 µM | 34 µM | > 100 µM | > 100 µM | 82.1 µM | 83.3 µM | 48.5 µM | > 100 µM | > 100 µM | 69.5 µM | 97.6 µM | –
5 | Cn1c2c(c3ccccc31)CCN1C(=O)CN(C(=O)C3CCCCC3)CC21 (centres undefined) | > 100 µM | > 100 µM | > 100 µM | > 100 µM | > 100 µM | > 100 µM | > 100 µM | > 100 µM | > 100 µM | > 100 µM | > 100 µM | > 100 µM | > 100 µM | > 100 µM | > 100 µM | > 100 µM | > 100 µM | > 100 µM | > 100 µM | > 100 µM
6 | O=c1c2ncn(C3CCCO3)c2n(-c2ccccc2)c(=S)n1-c1ccccc1 (centres undefined) | > 100 µM | > 100 µM | > 100 µM | > 100 µM | > 100 µM | > 100 µM | > 100 µM | > 100 µM | > 100 µM | > 100 µM | > 100 µM | > 100 µM | > 100 µM | > 100 µM | > 100 µM | > 100 µM | > 100 µM | > 100 µM | > 100 µM | > 100 µM
7 | CCOC(=O)c1sc2c(c1OC(=O)c1ccc(OC)cc1)c(=O)n(-c1ccccc1)c(=S)n2-c1ccccc1 | > 100 µM | > 100 µM | > 100 µM | > 100 µM | > 100 µM | > 100 µM | > 100 µM | > 100 µM | > 100 µM | 23 µM | 72.2 µM | > 100 µM | > 100 µM | > 100 µM | > 100 µM | > 100 µM | > 100 µM | 93.2 µM | > 100 µM | > 100 µM
8 | CCOC(=O)/C=C(/C(=O)OCC)n1cnc2c(=O)[nH]c(NC(C)=O)nc21 | > 100 µM | > 100 µM | > 100 µM | > 100 µM | > 100 µM | > 100 µM | > 100 µM | > 100 µM | > 100 µM | > 100 µM | > 100 µM | > 100 µM | > 100 µM | > 100 µM | > 100 µM | > 100 µM | > 100 µM | > 100 µM | > 100 µM | > 100 µM
9 | O=C1c2ccccc2C(=O)c2c1nc1ccccc1c2-c1cncc(-c2c3c(nc4ccccc24)C(=O)c2ccccc2C3=O)c1 | 67.4 µM | 22.3 µM | > 55.7 µM | 18.3 µM | 27.8 µM | > 100 µM | 13.8 µM | 32.4 µM | 10 µM | 19.6 µM | 51 µM | > 75.6 µM | > 100 µM | 27.1 µM | 3.51 µM | 28.7 µM | 27.9 µM | 7.9 µM | > 100 µM | 22.4 µM
10 | O=C(N(O)c1ccccc1Cl)C(O)(c1ccccc1)c1ccccc1 | > 100 µM | > 100 µM | > 100 µM | 64.7 µM | > 100 µM | 71.5 µM | > 100 µM | > 100 µM | > 100 µM | > 100 µM | > 100 µM | > 100 µM | > 100 µM | > 100 µM | 69 µM | > 100 µM | > 100 µM | 49.9 µM | > 100 µM | > 100 µM
11 | [N-]=[N+]=CC(=O)OC1Cc2ccccc2C1 | > 100 µM | > 100 µM | 81.9 µM | > 100 µM | > 100 µM | > 100 µM | > 100 µM | > 100 µM | > 100 µM | > 100 µM | > 100 µM | > 100 µM | > 100 µM | > 100 µM | > 100 µM | > 100 µM | > 100 µM | > 100 µM | > 100 µM | > 100 µM
